Literature values, collected in patent publication US5424456A, “N-arylalkylderivatives of 2-aminomethyl-2,3-dihydro-1,4-benzodioxine and the process of preparation thereof” (Vyzkumny Ustav Pro Farmacii A Biochemii s.p., priority 1991, dated 1995).

Legend:
[1] = compared to Verapamil; cited from earlier work
[2] = test system: α-adrenergic receptors; conditions: cited from earlier work

SMILES	negative inotropic activity [1]	α-adrenergic receptor blocking [2]
COc1ccc(CCN(C)CCCC(C#N)(c2ccccc2C)C(C)C)cc1OC (centres unmarked) [Mepamil]	lower negative inotropic activity	–
c1ccc2c(c1)OCC(CN1CCCCC1)O2 (centres unmarked) [Piperoxan]	–	block the α-adrenergic receptors in a competitive manner
